Values after ≈ are worked out from the molar mass of the structure shown. Where a SMILES comes first, the peptide text is derived from it. [ ]: non-standard residue; d: D form. The star is where a group is joined. Arachidoyl = CCCCCCCCCCCCCCCCCCCC(=O)*; Myristoyl = CCCCCCCCCCCCCC(=O)*; Nlys = NCCCCNCC(=O)O
How the values were obtained:
MSSE 81388 CANWARD 2008 = assay type: cell-based, methicillin-susceptible S. epidermidis; details: 24 h
Description: (§1) Antimicrobial activity of the purified lipopeptoids was determined without replication against a panel of clinically relevant and standard reference bacterial strains according to CLSI macrobroth standards. Stock solutions at 512 µg/mL were prepared in water, with DMSO as needed, and testing was performed in glass test tubes using Muller-Hinton broth and bacteria adjusted to 5 × 10^5 CFU/mL. Bacteria were incubated with the lipopeptoid of interest for 24 hr at 37°C prior to reading.
(§2) The bacteria Staphylococcus aureus ATCC 29213, methicillin-resistant S. aureus ATCC 33592, Staphylococcus epidermidis ATCC 14990, Enterococcus faecalis ATCC 29212, E. faecium ATCC 27270, Streptococcus pneumoniae ATCC 49619, Escherichia coli ATCC 25922, Pseudomonas aeruginosa ATCC 27853, and Klebsiella pneumoniae ATCC 13883 were acquired from the American Type Culture Collection (ATCC) and used as quality controls. The clinical strains methicillin-resistant S. epidermidis (MRSE) CAN-ICU 61589, E. coli CAN-ICU 61714, E. coli CAN-ICU 63074, P. aeruginosa CAN-ICU 62308, Stenotrophomonas maltophilia CAN-ICU 62584, Acinetobacter baumannii CAN-ICU 63169 were obtained from hospitals across Canada as part of the CAN-ICU studies, while methicillin-susceptible S. epidermidis (MSSE) 81388 was obtained from the 2008 CANWARD study.
(§3) After subculturing the relevant bacteria twice from frozen stock, in vitro activities of the antimicrobials were determined by macrobroth dilution methodology in accordance with the Clinical and Laboratory Standards Institute (CLSI) guidelines (3). The MICs were determined using glass test tubes (2 mL/tube) containing doubling antimicrobial dilutions of cation adjusted Mueller-Hinton broth inoculated to achieve a final concentration of approximately 5 x 10^5 CFU/mL, incubated in ambient air for 24 hr prior to reading. Colony counts were performed periodically to confirm inocula. The ATCC organisms […] ATCC 49619, Staphylococcus aureus ATCC 29213, Enterococcus faecalis ATCC 29212, Escherichia coli ATCC 25922, and Pseudomonas aeruginosa ATCC 27853 were used as quality control and to allow easy comparison to previously tested antimicrobials. Each test in this series was performed without replication. In our experience with cationic amphiphiles the results are accurate to within a single doubling.

K.pneumoniae ATCC 13883 = assay type: cell-based, Klebsiella pneumoniae; details: ATCC 13883, 24 h
Description: as §1, §2, §3

S.aureus ATCC 29213 = assay type: cell-based, Staphylococcus aureus; details: ATCC 29213, 24 h
Description: as §1, §2, §3

S.pneumoniae ATCC 49619 = assay type: cell-based, Streptococcus pneumoniae; details: ATCC 49619, 24 h
Description: as §1, §2, §3

[1] = tested on: P.aeruginosa CAN-ICU 62308; assay type: cell-based, Pseudomonas aeruginosa; details: CAN-ICU 62308, 24 h
Description: as §1, §2, §3

P.aeruginosa ATCC 27853 = assay type: cell-based, Pseudomonas aeruginosa; details: ATCC 27853, 24 h
Description: as §1, §2, §3

ovine erythrocytes = experiment: Haemolytic assay; assay type: cell-based, sheep; details: ovine erythrocytes in Tris buffered saline, 30 minutes, absorbance of supernatant at 540 nm
Description: Mammalian cell toxicity was determined by measuring lysis of ovine erythrocytes, a standard model for human cell toxicity. Cells were prewashed with Tris buffered saline and then incubated with a variety of lipopeptoid concentrations for 30 minutes. Following centrifugation, lysis was evaluated by testing the absorbance of the solution at 540 nm, with 0.5% NH4OH used as a positive control.
Toxicity to mammalian cells was determined using a sheep red blood cell (erythrocyte) haemolytic assay (4). Erythrocytes were washed and resuspended in Tris buffered saline prior to use, at a concentration of 1.46 - 4.5 x 10^9 cells/mL (on average 3.08 x 10^9 cells/mL). The cell suspension was diluted with varying concentrations of antimicrobials, from 50 μg/mL to 1 mg/mL and incubated for thirty minutes (final erythrocyte concentration 4.08 x 10^8 cells/mL). The samples were centrifuged following treatment and the absorbance of the supernatant was measured at 540 nm. A solution of 0.5% […] was used as a positive control, with normal buffered solution as the negative control. The toxicity was assessed as a function of percent haemolysis.

E. faecalis ATCC 29212 = assay type: cell-based, Enterococcus faecalis; details: ATCC 29212, 24 h
Description: as §1, §2, §3

[2] = tested on: A. baumannii CAN-ICU 63169; assay type: cell-based, Acinetobacter baumannii; details: CAN-ICU 63169, 24 h
Description: as §1, §2, §3

E.coli ATCC 25922 = assay type: cell-based, Escherichia coli; details: ATCC 25922, 24 h
Description: as §1, §2, §3

E.coli CAN-ICU 63074 = assay type: cell-based, Escherichia coli; details: CAN-ICU 63074, 24 h
Description: as §1, §2, §3

E.coli CAN-ICU 61714 = assay type: cell-based, Escherichia coli; details: CAN-ICU 61714, 24 h
Description: as §1, §2, §3

[3] = tested on: S. maltophilia CAN-ICU 62584; assay type: cell-based, Stenotrophomonas maltophilia; details: CAN-ICU 62584, 24 h
Description: as §1, §2, §3

MRSA ATCC 33592 = assay type: cell-based, methicillin-resistant S. aureus; details: ATCC 33592, 24 h
Description: as §1, §2, §3

E. faecium ATCC 27270 = assay type: cell-based; details: ATCC 27270, 24 h
Description: as §1, §2, §3

MRSE CAN-ICU 61589 = assay type: cell-based, methicillin-resistant S. epidermidis; details: CAN-ICU 61589, 24 h
Description: as §1, §2, §3

MIC MSSE (MSSE 81388 CANWARD 2008) [µg/mL] | MIC MSSE in the presence of 4% bovine serum albumin (MSSE 81388 CANWARD 2008) [µg/mL] | MIC K.pneumoniae (K.pneumoniae ATCC 13883) [µg/mL] | MIC K.pneumoniae in the presence of 4% bovine serum albumin (K.pneumoniae ATCC 13883) [µg/mL] | MIC S.aureus (S.aureus ATCC 29213) [µg/mL] | MIC S.aureus in the presence of 4% bovine serum albumin (S.aureus ATCC 29213) [µg/mL] | MIC S.pneumoniae (S.pneumoniae ATCC 49619) [µg/mL] | MIC P.aeruginosa [1] [µg/mL] | MIC P.aeruginosa in the presence of 4% bovine serum albumin [1] [µg/mL] | MIC P.aeruginosa (P.aeruginosa ATCC 27853) [µg/mL] | MIC P.aeruginosa in the presence of 4% bovine serum albumin (P.aeruginosa ATCC 27853) [µg/mL] | MIC E. faecalis (E. faecalis ATCC 29212) [µg/mL] | MIC E. faecalis in the presence of 4% bovine serum albumin (E. faecalis ATCC 29212) [µg/mL] | MIC A. baumannii [2] [µg/mL] | MIC A. baumannii in the presence of 4% bovine serum albumin [2] [µg/mL] | MIC E.coli (E.coli ATCC 25922) [µg/mL] | MIC E.coli in the presence of 4% bovine serum albumin (E.coli ATCC 25922) [µg/mL] | MIC E.coli (E.coli CAN-ICU 63074) [µg/mL] | MIC E.coli in the presence of 4% bovine serum albumin (E.coli CAN-ICU 63074) [µg/mL] | Structure (SMILES) | Percent haemolysis at 100µg/mL of compound (ovine erythrocytes) [%] | further results
8 (≈ 10.8 µM) | 512 | 256 (≈ 347 µM) | 512 | 16 (≈ 21.7 µM) | 256 | 64 (≈ 86.7 µM) | 128 (≈ 173 µM) | 512 | 256 (≈ 347 µM) | >512 | 32 (≈ 43.4 µM) | 512 | 256 (≈ 347 µM) | >512 | 64 (≈ 86.7 µM) | 512 | 64 (≈ 86.7 µM) | 512 | CCCCCCCCCCCCCC(=O)N(CCCCNC(=N)N)CC(=O)N(CCCCNC(=N)N)CC(=O)N(CCCCNC(=N)N)CC(N)=O [C14-NhargNhargNharg] | 20.34 | MIC S.pneumoniae in the presence of 4% bovine serum albumin (S.pneumoniae ATCC 49619): 256 µg/mL; MIC E.coli (E.coli CAN-ICU 61714): 64 µg/mL (≈ 86.7 µM); MIC E.coli in the presence of 4% bovine serum albumin (E.coli CAN-ICU 61714): 512 µg/mL; MIC S. maltophilia [3]: 256 µg/mL (≈ 347 µM); MIC S. maltophilia in the presence of 4% bovine serum albumin [3]: >512 µg/mL; MIC MRSA (MRSA ATCC 33592): 16 µg/mL (≈ 21.7 µM); MIC MRSA in the presence of 4% bovine serum albumin (MRSA ATCC 33592): 512 µg/mL; MIC E. faecium (E. faecium ATCC 27270): 16 µg/mL (≈ 21.7 µM); MIC E. faecium in the presence of 4% bovine serum albumin (E. faecium ATCC 27270): 256 µg/mL; MIC MRSE (MRSE CAN-ICU 61589): 16 µg/mL (≈ 21.7 µM); MIC MRSE in the presence of 4% bovine serum albumin (MRSE CAN-ICU 61589): 256 µg/mL
8 (≈ 12.8 µM) | 256 | 128 (≈ 205 µM) | >512 | 8 (≈ 12.8 µM) | 512 | 128 (≈ 205 µM) | 256 (≈ 410 µM) | >512 | 256 (≈ 410 µM) | >512 | 16 (≈ 25.6 µM) | 512 | 128 (≈ 205 µM) | >512 | 256 (≈ 410 µM) | >512 | 128 (≈ 205 µM) | >512 | CCCCCCCCCCCCCCCCCCCC(=O)N(CCCCN)CC(=O)NCC(=O)N(CCCCN)CC(N)=O [C20-NlysGNlys] (Arachidoyl-[Nlys]-Gly-[Nlys]-NH2) | 33.51 | MIC S.pneumoniae in the presence of 4% bovine serum albumin (S.pneumoniae ATCC 49619): 512 µg/mL; MIC E.coli (E.coli CAN-ICU 61714): 256 µg/mL (≈ 410 µM); MIC E.coli in the presence of 4% bovine serum albumin (E.coli CAN-ICU 61714): >512 µg/mL; MIC S. maltophilia [3]: 128 µg/mL (≈ 205 µM); MIC S. maltophilia in the presence of 4% bovine serum albumin [3]: >512 µg/mL; MIC MRSA (MRSA ATCC 33592): 16 µg/mL (≈ 25.6 µM); MIC MRSA in the presence of 4% bovine serum albumin (MRSA ATCC 33592): 512 µg/mL; MIC E. faecium (E. faecium ATCC 27270): 16 µg/mL (≈ 25.6 µM); MIC E. faecium in the presence of 4% bovine serum albumin (E. faecium ATCC 27270): 512 µg/mL; MIC MRSE (MRSE CAN-ICU 61589): 8 µg/mL (≈ 12.8 µM); MIC MRSE in the presence of 4% bovine serum albumin (MRSE CAN-ICU 61589): 512 µg/mL
16 (≈ 29.6 µM) | 512 | 256 (≈ 473 µM) | >512 | 32 (≈ 59.2 µM) | 512 | 256 (≈ 473 µM) | 512 (≈ 947 µM) | >512 | 256 (≈ 473 µM) | >512 | 64 (≈ 118 µM) | >512 | 256 (≈ 473 µM) | >512 | 128 (≈ 237 µM) | >512 | 128 (≈ 237 µM) | >512 | CCCCCCCCCCCCCC(=O)N(CCCCN)CC(=O)NCC(=O)N(CCCCN)CC(N)=O [C14-NlysGNlys] (Myristoyl-[Nlys]-Gly-[Nlys]-NH2) | 2.90 | MIC S.pneumoniae in the presence of 4% bovine serum albumin (S.pneumoniae ATCC 49619): >512 µg/mL; MIC E.coli (E.coli CAN-ICU 61714): 128 µg/mL (≈ 237 µM); MIC E.coli in the presence of 4% bovine serum albumin (E.coli CAN-ICU 61714): >512 µg/mL; MIC S. maltophilia [3]: 512 µg/mL (≈ 947 µM); MIC S. maltophilia in the presence of 4% bovine serum albumin [3]: >512 µg/mL; MIC MRSA (MRSA ATCC 33592): 32 µg/mL (≈ 59.2 µM); MIC MRSA in the presence of 4% bovine serum albumin (MRSA ATCC 33592): 512 µg/mL; MIC E. faecium (E. faecium ATCC 27270): 64 µg/mL (≈ 118 µM); MIC E. faecium in the presence of 4% bovine serum albumin (E. faecium ATCC 27270): 512 µg/mL; MIC MRSE (MRSE CAN-ICU 61589): 32 µg/mL (≈ 59.2 µM); MIC MRSE in the presence of 4% bovine serum albumin (MRSE CAN-ICU 61589): 512 µg/mL
8 (≈ 10.4 µM) | 256 | 256 (≈ 334 µM) | >512 | 8 (≈ 10.4 µM) | 512 | 64 (≈ 83.5 µM) | 64 (≈ 83.5 µM) | >512 | 64 (≈ 83.5 µM) | >512 | 16 (≈ 20.9 µM) | 512 | 128 (≈ 167 µM) | >512 | 16 (≈ 20.9 µM) | 512 | 32 (≈ 41.8 µM) | >512 | CCCCCCCCCCCCCCCC(=O)N(CCCCNC(=N)N)CC(=O)N(CCCCNC(=N)N)CC(=O)N(CCCCNC(=N)N)CC(N)=O [C16-NhargNhargNharg] | 30.80 | MIC E.coli (E.coli CAN-ICU 61714): 32 µg/mL (≈ 41.8 µM); MIC E.coli in the presence of 4% bovine serum albumin (E.coli CAN-ICU 61714): 512 µg/mL; MIC S. maltophilia [3]: 128 µg/mL (≈ 167 µM); MIC S. maltophilia in the presence of 4% bovine serum albumin [3]: >512 µg/mL; MIC MRSA (MRSA ATCC 33592): 16 µg/mL (≈ 20.9 µM); MIC MRSA in the presence of 4% bovine serum albumin (MRSA ATCC 33592): 512 µg/mL; MIC E. faecium (E. faecium ATCC 27270): 16 µg/mL (≈ 20.9 µM); MIC E. faecium in the presence of 4% bovine serum albumin (E. faecium ATCC 27270): 512 µg/mL; MIC MRSE (MRSE CAN-ICU 61589): 8 µg/mL (≈ 10.4 µM); MIC MRSE in the presence of 4% bovine serum albumin (MRSE CAN-ICU 61589): 512 µg/mL

From article PMC3402541, “Guanidylation and Tail Effects in Cationic Antimicrobial Lipopeptoids” (PLoS ONE, 2012)
